PubChem BioAssay (NCI)
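Five concentrations, 48 hours, 96-well plates. At the TGI there is no net growth.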

Assays:
Test in all cases: growth of human tumour cells (NCI), 48 h
SF-539 CNS = test system: SF-539 CNS
ACHN renal = test system: ACHN renal
RPMI-8226 leukemia = test system: RPMI-8226 leukemia
HCT-15 colon = test system: HCT-15 colon
MALME-3M melanoma = test system: MALME-3M melanoma
HT29 colon = test system: HT29 colon
UACC-257 melanoma = test system: UACC-257 melanoma
OVCAR-4 ovarian = test system: OVCAR-4 ovarian
M14 melanoma = test system: M14 melanoma
LXFL 529 NSCLC = test system: LXFL 529 NSCLC
TK-10 renal = test system: TK-10 renal
CCRF-CEM leukemia = test system: CCRF-CEM leukemia
DMS 273 small cell lung = test system: DMS 273 small cell lung
EKVX NSCLC = test system: EKVX NSCLC
HL-60(TB) leukemia = test system: HL-60(TB) leukemia
LOX IMVI melanoma = test system: LOX IMVI melanoma
NCI-H460 lung = test system: NCI-H460 lung
SNB-75 CNS = test system: SNB-75 CNS
SK-OV-3 ovarian = test system: SK-OV-3 ovarian
HCC-2998 colon = test system: HCC-2998 colon
U251 CNS = test system: U251 CNS
M19-MEL melanoma = test system: M19-MEL melanoma
NCI-H522 lung = test system: NCI-H522 lung
IGROV1 ovarian = test system: IGROV1 ovarian
786-0 renal = test system: 786-0 renal
SF-295 CNS = test system: SF-295 CNS
HOP-92 NSCLC = test system: HOP-92 NSCLC
HCT-116 colon = test system: HCT-116 colon
OVCAR-5 ovarian = test system: OVCAR-5 ovarian
SK-MEL-5 melanoma = test system: SK-MEL-5 melanoma
HOP-18 NSCLC = test system: HOP-18 NSCLC
NCI-H23 lung = test system: NCI-H23 lung
A549 NSCLC = test system: A549 NSCLC
MOLT-4 leukemia = test system: MOLT-4 leukemia
RXF 393 renal = test system: RXF 393 renal
KM12 colon = test system: KM12 colon
OVCAR-8 ovarian = test system: OVCAR-8 ovarian
DLD-1 colon = test system: DLD-1 colon
HOP-62 NSCLC = test system: HOP-62 NSCLC
CAKI-1 renal = test system: CAKI-1 renal
KM20L2 colon = test system: KM20L2 colon
UACC-62 melanoma = test system: UACC-62 melanoma
SN12C renal = test system: SN12C renal
XF 498 CNS = test system: XF 498 CNS
A498 renal = test system: A498 renal
SW-620 colon = test system: SW-620 colon
SK-MEL-28 melanoma = test system: SK-MEL-28 melanoma
COLO 205 colon = test system: COLO 205 colon
SF-268 CNS = test system: SF-268 CNS
NCI-H226 lung = test system: NCI-H226 lung
K-562 leukemia = test system: K-562 leukemia
UO-31 renal = test system: UO-31 renal
SNB-19 CNS = test system: SNB-19 CNS
OVCAR-3 ovarian = test system: OVCAR-3 ovarian
SK-MEL-2 melanoma = test system: SK-MEL-2 melanoma
RXF-631 renal = test system: RXF-631 renal

CC(C)N(C(=O)C12C3C4C1(I)C1C2C3(I)C41C(=O)N(C(C)C)C(C)C)C(C)C (stereo unspecified)
TGI (SF-539 CNS): > 59.6 µM | TGI (ACHN renal): > 100 µM | TGI (RPMI-8226 leukemia): > 72.5 µM | TGI (HCT-15 colon): > 59.8 µM | TGI (MALME-3M melanoma): > 100 µM | TGI (HT29 colon): > 100 µM | TGI (UACC-257 melanoma): > 100 µM | TGI (OVCAR-4 ovarian): > 100 µM | TGI (M14 melanoma): > 100 µM | TGI (LXFL 529 NSCLC): > 100 µM | TGI (TK-10 renal): > 100 µM | TGI (CCRF-CEM leukemia): > 61.2 µM | TGI (DMS 273 small cell lung): > 100 µM | TGI (EKVX NSCLC): > 100 µM | TGI (HL-60(TB) leukemia): > 61.3 µM | TGI (LOX IMVI melanoma): > 60.5 µM | TGI (NCI-H460 lung): > 100 µM | TGI (SNB-75 CNS): > 100 µM | TGI (SK-OV-3 ovarian): > 100 µM | TGI (HCC-2998 colon): > 100 µM | TGI (U251 CNS): > 100 µM | TGI (M19-MEL melanoma): > 70.9 µM | TGI (NCI-H522 lung): > 100 µM | TGI (IGROV1 ovarian): > 100 µM | TGI (786-0 renal): > 64.4 µM | TGI (SF-295 CNS): > 100 µM | TGI (HOP-92 NSCLC): > 100 µM | TGI (HCT-116 colon): > 100 µM | TGI (OVCAR-5 ovarian): > 100 µM | TGI (SK-MEL-5 melanoma): > 100 µM | TGI (HOP-18 NSCLC): > 100 µM | TGI (NCI-H23 lung): > 100 µM | TGI (A549 NSCLC): > 100 µM | TGI (MOLT-4 leukemia): > 100 µM | TGI (RXF 393 renal): > 100 µM | TGI (KM12 colon): > 62.5 µM | TGI (OVCAR-8 ovarian): > 100 µM | TGI (DLD-1 colon): > 100 µM | TGI (HOP-62 NSCLC): > 100 µM | TGI (CAKI-1 renal): > 100 µM | TGI (KM20L2 colon): > 100 µM | TGI (UACC-62 melanoma): > 100 µM | TGI (SN12C renal): > 100 µM | TGI (XF 498 CNS): > 100 µM | TGI (A498 renal): > 100 µM | TGI (SW-620 colon): > 59.6 µM | TGI (SK-MEL-28 melanoma): > 100 µM | TGI (COLO 205 colon): > 100 µM | TGI (SF-268 CNS): > 100 µM | TGI (NCI-H226 lung): > 100 µM | TGI (K-562 leukemia): > 63.6 µM | TGI (UO-31 renal): > 100 µM | TGI (SNB-19 CNS): > 100 µM | TGI (OVCAR-3 ovarian): > 100 µM | TGI (SK-MEL-2 melanoma): > 100 µM | TGI (RXF-631 renal): > 100 µM
